Several values for one entry are separate records, joined by “and”; a condition that tells them apart may be missing. Identical values can stand only once. Like-named read-outs stand apart in the source and are kept apart here.

Data set [1] can be described thus: Liver dosimetry of PFHxSA and PFHxS by targeted LC/MS/MS. The class given is in vivo, rat. The settings on record: for PFHxS Male Liver Conc. (wet weight) / PFHxS Female Liver Conc. (wet weight) / concentration at 24 h: individual rats; for PFHxS Male Liver Conc. (wet weight) / concentration at 24 h: male; for concentration at 24 h: Sprague Dawley (Crl:CD(SD)), liver, oral, read-out: PFHxS Male Liver Conc. (wet weight). The text has this:
The plasma and liver samples for this investigation were provided by Mutlu et al.. The study design, including detailed descriptions of animal handling, procedures for dosing, clinical observations, termination, and collection of tissues, is reported elsewhere and is consistent with the ARRIVE guidelines. Briefly, male and female Sprague Dawley (SD) rats (Crl:CD(SD)) (n = 48/sex, 96 total) were purchased from Charles River Laboratory (Raleigh, NC, USA) and allowed to acclimate for ≥5 days before initial dosing. Rats were 8–10 weeks old at the time of exposure. PFHxSA dosing solutions in corn oil were prepared on Day 0 and used over the course of the study. Rats of both sexes (n = 5/sex, dose, and time point, plus eight vehicle controls per sex) were dosed by oral gavage (5 mL/kg body weight) once daily for five days. […] The formulation concentrations decreased from 100 mg/kg/day at half-log10 intervals until the lowest dose level, which was a full log10 interval below the next higher dose, giving eight dose levels (0.01 to 100 mg/kg/day or 0.025 µmol/kg/day to 250 µmol/kg/day) in addition to vehicle controls. Doses were administered in randomized order within ± 1 h on each day of dosing. […] Rats were euthanized 24 h after the last dose. Blood was collected via cardiac puncture with tripotassium ethylene diamine tetraacetic acid (K3EDTA) as an anti-coagulant and centrifuged to collect cell-free plasma. Liver was collected and flash-frozen in liquid nitrogen. Liver, plasma, and dosing formulation samples were frozen at the USEPA Center for Computational Toxicology and Exposure (CCTE), Durham, NC, USA. Tissue samples (plasma and liver, n = 96 each) were stored at ≤−70 °C prior to extraction; dosing formulation samples (n = 9) were stored at −20 °C.
Detailed information on solvents and standards used for targeted LC/MS/MS of PFHxSA and PFHxS can be found in SI Text S1 and SI Table S1. Plasma and liver preparations were modified from Conley et al.. Briefly, aliquots of plasma (25 µL) and liver (~10 mg) were spiked with PFOSA as an internal standard, as no isotope-labeled PFHxSA was available. Sample batches included up to 96 samples along with an MB, CCV, and LCS for QC. Commercial plasma (mixed-sex SD rat plasma) and liver (mixed-sex SD rat) were obtained from BioIVT (Westbury, NY, USA). Cold acetonitrile (ACN) with 0.1 M formic acid was used to precipitate proteins. Liver and plasma samples were prepared similarly, except that the livers were homogenized after solvent addition. Plasma samples were vortexed to mix before being chilled at −20 °C, after which samples were centrifuged at 5 °C and 10,000× g. Liver samples were chilled at −80 °C, then homogenized using an Omni International (Kennesaw, GA, USA) Bead Ruptor 24. Liver homogenates were centrifuged at 26,000× g and 5 °C. Supernatants from the extraction of both matrices were removed and stored at −20 °C until analysis. Refer to SI Text S4 for additional experimental details and information on calibration and QC parameters for quantitation of PFHxSA.
Targeted LC/MS/MS of PFHxSA was performed on a Sciex 4000 QTRAP LC/MS/MS system operated in negative ESI mode with MRM scanning. A Restek (Bellefonte, PA, USA) Raptor Polar X (100 mm × 2 mm, 2.7 µm) column was used for liquid chromatography. Isocratic elution occurred over 10 min with a 30:70 ratio of mobile phase A (10 mM ammonium formate): mobile phase B (60:40 ACN: methanol). Both mobile phases included 0.05% formic acid. The LOQs for PFHxSA were 0.100 µM in plasma and 0.351 µM in liver. Additional details of the instrument method parameters for targeted analysis of PFHxSA are provided in SI Table S5. The MRM transitions for the PFHxSA method are provided in SI Table S6. […]

Data set [2] is described as follows: In vitro-in vivo extrapolation (IVIVE) to estimate Css, rat. How it is done:
(§1) Intrinsic hepatic clearance (Clint) and fraction unbound in plasma (fup) were calculated from the experimental point estimate data as described in Dobreniecki et al.. Steady-state concentrations (Css) were derived based on zero-order uptake of an assumed daily dose from the gut (assuming 100% intestinal bioavailability) but considering hepatic clearance and non-metabolic renal clearance. Renal clearance was calculated using the glomerular filtration rate (a species-dependent constant) and the fraction unbound in blood (fub), estimated by adjusting the experimental fup for blood/plasma partitioning. The Css calculations, along with underlying species-specific physiologic scalars, are detailed in SI Texts S6 and S7. […]
(§2) hepatocytes). In equation (C), the scalar 2000 is used to adjust the assay cell number to be consistent with units of 1 million cells in the Clint equation.
(§3) Text S7 In Vitro-In Vivo Extrapolation (IVIVE) Calculations
(§4) The pharmacokinetic equation used to estimate expected steady-state concentrations (Css) is based on zero-order uptake of a daily dose from the gut (assuming 100% bioavailability) with both nonmetabolic renal clearance (Clrenal) and hepatic clearance (Clhepatic) (Equation D). The chemical input rate (ko) is the product of the intake dosage and the model body weight; this represents the numerator of Equation D. The Clrenal calculation is shown in the first part of the denominator of Equation D; it is the product of the species-dependent glomerular filtration rate (GFR) and the unbound fraction in blood (fub) of the parent compound. The Clhepatic calculation is shown in the second part of the denominator of Equation D; it is the product of the species-dependent liver blood flow constant, the fub of the parent compound, and the experimentally derived intrinsic clearance (shown in Equation C) divided by the sum of these three values. All values used in Equation D are for first-order conditions of metabolism in the […]

Data set [3] in a line: In vitro-in vivo extrapolation (IVIVE) to estimate Css, human. How it is done: as §1, §2, §3, §4
Details of data set [4]: method as in Smeltz et al. [60]. Conditions: ref Smeltz et al. [60], cited from earlier work.
On the set-up of data set [5]: method as in PMID 37756184. The settings on record: bariatric surgery patients; cited from earlier work.
The mark [6] stands for this setting: PFHxSA 10 mg/kg/day oral 5 days.
Where [7] appears, read: PFHxSA 30 mg/kg/day oral 5 days.
Setting [8] is: PFHxSA 100 mg/kg/day oral 5 days.

With `O=S(=O)(O)C(F)(F)C(F)(F)C(F)(F)C(F)(F)C(F)(F)C(F)(F)F` [PFHxS, perfluorohexane sulfonic acid], the “PFHxS Male Liver Conc. (wet weight)” value in data set [1] (PFHxSA 0.3 mg/kg/day oral 5 days) was 2.31 ng/mg and 3.68 µM and 0.95 µM and 2.30 µM and 0.85 µM and 1.47 ng/mg and 0.381 ng/mg and 0.921 ng/mg and 0.340 ng/mg; in data set [1] (PFHxSA 1 mg/kg/day oral 5 days) it was 2.73 ng/mg (2×) and 2.38 ng/mg and 3.34 µM and 5.56 µM and 6.81 µM (2×) and 5.95 µM and 1.34 ng/mg and 2.23 ng/mg; in data set [1] (PFHxSA 3 mg/kg/day oral 5 days), 4.61 ng/mg and 5.83 ng/mg and 4.92 ng/mg and 3.19 ng/mg and 11.5 µM and 14.6 µM and 12.3 µM and 7.97 µM; in data set [1] (setting [6]) it was 8.96 ng/mg and 6.84 ng/mg and 9.88 ng/mg and 7.36 ng/mg and 22.4 µM and 17.1 µM and 24.7 µM and 18.4 µM; in data set [1] (setting [7]), 16.3 ng/mg and 15.3 ng/mg and 15.2 ng/mg and 24.0 ng/mg and 40.7 µM and 38.2 µM and 38.3 µM and 60.1 µM; in data set [1] (setting [8]), 67.1 ng/mg and 88.3 ng/mg and 41.9 ng/mg and 34.0 ng/mg and 44.5 ng/mg and 168 µM and 221 µM and 105 µM and 85.1 µM. Moreover, the “PFHxS Female Liver Conc. (wet weight)” value in data set [1] (setting [6]) was 0.301 ng/mg and 0.776 ng/mg and 0.700 ng/mg and 1.18 ng/mg and 1.13 ng/mg and 0.753 µM and 1.94 µM and 1.75 µM and 2.96 µM and 2.81 µM; in data set [1] (setting [7]), 1.72 ng/mg and 2.56 ng/mg and 1.26 ng/mg and 1.35 ng/mg and 2.38 ng/mg and 4.31 µM and 6.39 µM and 3.15 µM and 3.37 µM and 5.96 µM; in data set [1] (setting [8]), 4.16 µM and 2.21 µM and 10.2 µM and 5.79 µM and 2.07 µM and 1.66 ng/mg and 0.885 ng/mg and 4.07 ng/mg and 2.32 ng/mg and 0.826 ng/mg. For the same compound, in data set [1] (female rats, after oral PFHxSA), the “PFHxS lower than PFHxSA in female liver, on average” value is listed as 2.9 fold. For the same compound, the concentration at 24 h in data set [1] (rat, PFHxSA 3 mg/kg/day oral 5 days) is 3100 ng/g and 7.74 µM; in data set [1] (rat, PFHxSA 10 mg/kg/day oral 5 days), 7940 ng/g and 19.9 µM; in data set [1] (rat, PFHxSA 30 mg/kg/day oral 5 days), 14500 ng/g and 36.2 µM. Further, the “Male PFHxS liver concentrations versus females at equivalent dose levels” value in data set [1] (rat, in vivo) is “approximately ten-fold greater”. For the same compound, the “Css (steady-state concentration)” value in data set [2] (Rat, IVIVE-derived, assumes 1 mg/kg/day exposure) is 243 µM; in data set [3] (Human, IVIVE-derived, assumes 1 mg/kg/day exposure) it was 669 µM. The CL renal is 0.00167 mL/min in data set [2] (Rat, non-metabolic, GFR x fub, read-out: Clrenal (renal clearance) (converted)) and 0.183 mL/min in data set [3] (Human, non-metabolic, GFR x fub, read-out: Clrenal (renal clearance) (converted)). In addition, in data set [2] (rat), the “PFHxS Css higher than PFHxSA Css” value was 1.8 fold. Further, the “Predicted Css in humans higher than rats” value in data set [3] (cross-species IVIVE comparison) was 3- to 10 fold. Also, the “IVIVE-derived Css lower for PFHxS compared to PFHxSA” value in data set [3] (human) is 2.25 fold. The “fup (fraction unbound in plasma)” value in data set [4] (Human plasma) is listed as 0.0009 ^1. The “fub (fraction unbound in blood)” value in data set [4] (Human) is on record as 0.0016 ^1. In addition, the “Human liver/plasma partitioning Kp” value in data set [5] is given as 0.12.
